Source: article PMC8689648, “Binding Affinity Determines Substrate Specificity and Enables Discovery of Substrates for N-Myristoyltransferases” (ACS Catalysis, 2021)
Read-outs that look alike come from different tables or passages of the source. Blank lines part the entries; values can stand above or below the molecule they belong to.

How the values were obtained:
[1] = target: T1, N-myristoyltransferase 1 (NMT1) (Homo sapiens, UniProt P30419); assay: steady-state kinetics with ARF6 peptide (HPLC, MS); Kia from ordered Bi-Bi global fit; assay type: biochemical
T1 sequence (P30419 1-496): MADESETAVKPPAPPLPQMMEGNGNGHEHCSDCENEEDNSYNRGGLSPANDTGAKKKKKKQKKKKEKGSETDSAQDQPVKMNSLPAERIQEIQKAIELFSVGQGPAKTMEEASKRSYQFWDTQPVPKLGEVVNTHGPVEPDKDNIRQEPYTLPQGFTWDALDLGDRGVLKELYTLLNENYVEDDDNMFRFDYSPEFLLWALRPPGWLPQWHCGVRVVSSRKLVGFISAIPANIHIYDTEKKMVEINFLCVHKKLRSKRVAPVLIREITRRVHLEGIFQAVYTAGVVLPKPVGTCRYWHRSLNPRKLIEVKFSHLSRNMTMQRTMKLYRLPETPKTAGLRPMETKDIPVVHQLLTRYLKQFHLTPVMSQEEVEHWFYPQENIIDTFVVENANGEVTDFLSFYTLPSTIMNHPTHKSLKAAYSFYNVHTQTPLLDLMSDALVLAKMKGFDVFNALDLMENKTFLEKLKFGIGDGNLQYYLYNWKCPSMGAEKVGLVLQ

[2] = target: T1, N-myristoyltransferase 1 (NMT1); assay: steady-state inhibition kinetics of myristoylation of ARF6 peptide (HPLC), recombinant NMT1; assay type: biochemical
[3] = target: T1, N-myristoyltransferase 1 (NMT1); assay: steady-state inhibition kinetics of acetylation of ARF6 peptide (HPLC), recombinant NMT1; assay type: biochemical
[4] = target: T2, human N-myristoyltransferase 1 (NMT1) (human) (UniProt P30419)
T2 sequence: T1 sequence (P30419 1-496)

Ki [2]: 14.7 ± 2.2 nM
Molecule: CCCCCCCCCCCCCC(=O)CSCCNC(=O)CCNC(=O)[C@H](O)C(C)(C)COP(=O)(O)OP(=O)(O)OC[C@H]1O[C@@H](n2cnc3c(N)ncnc32)[C@H](O)[C@@H]1OP(=O)(O)O [S-(2-oxo)pentadecyl-CoA]

Kpep (Michaelis constant Km for ARF6 peptide) of NMT1-catalysed acetylation, Ac-CoA as the first substrate; 50 mM TriCl pH 8.0, 37 °C [4]: 40 μM | Kpep (Michaelis constant Km for ARF6 peptide) of NMT1-catalysed myristoylation, Myr-CoA as the first substrate; 50 mM TriCl pH 8.0, 37 °C [4]: 5 μM
Molecule: GKVLSKIFWW [ARF6 N-terminal peptide (…)]

Continued, molecule first:

Molecule: CC(=O)SCCNC(=O)CCNC(=O)[C@H](O)C(C)(C)COP(=O)(O)OP(=O)(O)OC[C@H]1O[C@@H](n2cnc3c(N)ncnc32)[C@H](O)[C@@H]1OP(=O)(O)O [Ac-CoA, acetyl-CoA]
Kd ([1]; read-out: Kia): 2400 ± 500 nM

Molecule: CCCCCCCCCCCCCC(=O)SCCNC(=O)CCNC(=O)[C@H](O)C(C)(C)COP(=O)(O)OP(=O)(O)OC[C@H]1O[C@@H](n2cnc3c(N)ncnc32)[C@H](O)[C@@H]1OP(=O)(O)O [Myr-CoA, myristoyl-CoA]
Kd [1]: 200 ± 100 nM

Molecule: CC(=O)CSCCNC(=O)CCNC(=O)[C@H](O)C(C)(C)COP(=O)(O)OP(=O)(O)OC[C@H]1O[C@@H](n2cnc3c(N)ncnc32)[C@H](O)[C@@H]1OP(=O)(O)O [S-acetonyl-CoA]
Ki [3]: 10100 ± 2200 nM
